Experimental data reported in patent US20040152903A1, “6-chloro-3-pyridylmethylpropylamine derivatives, preparation process thereof and bactericides” (priority 2004, published 2004).

How the values were obtained:
wheat powdery mildew [1] = assay: Test of control effect on wheat powdery mildew; format: in vivo; parameters: Control Value: scale not given here; details: wettable powder 125 mg/l, 100 liters/10 a, wheat seedlings (Nourin 64), examined 9th to 14th day after inoculation
Protocol: (Test of Control Effect on Wheat Powdery Mildew) Wettable powders were prepared from compounds of the present invention I-1 to I-27 and comparative compounds (a) to (d), (m-1) and (m-3). The obtained wettable powder was diluted and suspended with water to provide the predetermined concentration (125 mg/l), and was sprinkled onto seedlings of wheat (variety: “Nourin 64”) at the first to the second leaf period which were cultivated using square plastic pots (size: 6.4 cm×6.4 cm) in a rate of 100 liters/10 a (ares). After drying the sprinkled leaves with air, a suspension of wheat powdery mildew spores taken from infected leaves was inoculated by spraying onto the sprinkled leaves. They were supervised in a green house (temperature: 20 to 24° C., relative humidity: 20 to 70 RH). On the 9th to 14th day after the inoculation, the infection degree was examined according to the following scale and the control value of each compound was calculated by the following calculation equation 1. [table]

cucumber powdery mildew = assay: Test of control effect on cucumber powdery mildew; format: in vivo; details: wettable powder 100 mg/l, 100 liters/10 a, cucumber (Sagamihanpakufushinari), examined 9th to 14th day after inoculation
Protocol: (Test of Control Effect on Cucumber Powdery Mildew) The wettable powders formulated by using each of the compounds I-1 to 27 according to the present invention and the comparative compounds (a) to (d), (m-1) and (m-3) were each diluted and suspended with water to a predetermined concentration (100 mg/l), the suspension was sprinkled over the first to the second leaf period cucumbers (variety: “[…]”) cultivated by using a square plastic pot (size: 6.4 cm×6.4 cm) in a rate of 100 liters/10 a (ares). After the sprinkled leaves were air-dried, the spores were inoculated over the leaves by sprinkling the same with a brush from an infected leaf, a disease was contracted in a glass house (temperature: 20 to 24° C., relative humidity: 20 to 70 RH). On the 9th to 14th day after the inoculation, the infection degree was examined according to the following scale and the control value of each compound was calculated by the following calculation equation 2: (Examination Scale) [table]

Botrytis cinerea = assay: Antifungal activity test (PDA plate, hypha extension inhibition); format: cell-based; details: 1.6 ppm in PDA culture medium
Protocol: (§1) (Antifungal Activity Test against Various Pathogenic Fungi) For each of the compounds I-1 to 27 of the present invention and the comparative compounds (a) to (d), (m-1) and (m-3), 20 mg was weighed and dissolved in 2 ml of dimethylsulfoxide, and a double dilution row in 10 steps was prepared by further using dimethylsulfoxide. A 0.6 ml portion of these solutions was each added to 60 ml of a PDA culture medium (potato-dextrose-agar culture medium) at about 60° C., they were well mixed in a 100 ml Erlenmeyer flask, the solution was poured into a schale and was solidified, the plate culture media containing the compounds according to the present invention with final concentrations of 100, 50.0, 25.0, 12.5, 6.3, 3.2, 1.6, 0.8, 0.4 and 0.2 mg/l were prepared. On the other hand, the specimen bacteria cultured on the plate culture media beforehand was punched by a 4 mm diameter cork borer, and was inoculated on the plate culture media containing the aforementioned chemicals. After the inoculation, the bacteria were cultured at the optimum growth temperature of each bacterium for 1 to 7 days (for this optimum growth temperature, LIST OF CULTURES 1996 Microorganisms 10th edition published by Fermentation Research Institute (Foundation) can be referred to.), and the growth of the bacteria was measured by the diameter of a colony. […] R=100(dc−dt)/dc (Equation 3) [wherein each symbol is shown as follows: R=Hypha extension inhibition rate (%), dc=Diameter of colony on no-treated plate, dt=Diameter of colony on chemical-treated plate.] The results obtained above was evaluated in 5 steps in accordance with the following examination scale. <Growth Inhibition> 5: Hypha extension inhibition rate of 90% or more 4: Hypha extension inhibition rate of from 70% to less than 90% 3: […] 2: […] In addition, the abbreviations in Table 10 are as follows: B.c: Botrytis cinerea

Septoria tritici = assay: as above; format: cell-based; details: 100 ppm in PDA culture medium
Protocol: as §1, with “S.t: Septoria tritici” for “B.c: Botrytis cinerea”

wheat powdery mildew [2] = assay: Permeable mobility fungicidal effect test in leaf section of wheat powdery mildew; format: in vivo; details: length of non-contracted area relative to compound (m-2); 200 mg/l, 0.5 μl applied to wheat leaf (Abukumawase)
Protocol: (Permeable Mobility Fungicidal Effect Test in Leaf Section of Wheat Powdery Mildew) In the test example 4, permeable mobility fungicidal effect test was performed on the leaf section of wheat powdery mildew with regard to the compounds I-1 to 27 according to the present invention and the comparative compounds (a) to (d), and (m-1) to (m-3) with the method described later. <Test Method> The compound in the form of a wettable powder obtained by Formulation 2 or the like was diluted and suspended with water to a predetermined concentration (200 mg/l), and 0.5 μl of the suspension was applied to a 2 to 3 cm leaf portion from the root of the three leaves of the 4th to 4.5th leaf period wheat (variety: Abukumawase) cultured by using a square plastic pot (size: 6.4 cm×6.4 cm). After these wheat leaves were subject to still standing in a glass house (temperature: 20 to 24° C., relative humidity: 20 to 70 RH) for one day, the spores of wheat powdery mildew were inoculated over the leaves by sprinkling the same with a brush from an infected leaf, a disease was contracted in the same glass house. The length of a non-contracted area generated from the applied portion to the direction of the leaf top was measured, and a relative mobility to the compound (m-2) was calculated with the following calculation […] by using the comparative compound (m-2) as a standard compound. Relative mobility=(Length of non-contracted area in each chemical section (cm)/Length of non-contracted area of compound (m-2) (cm)) (Equation 4)

Leptosphaeria nodorum = assay: Antifungal activity test (PDA plate, hypha extension inhibition); format: cell-based; details: 0.8 ppm in PDA culture medium
Protocol: as §1, with “L.n: Leptosphaeria nodorum” for “B.c: Botrytis cinerea”

Structure (SMILES) | Control Value (wheat powdery mildew [1]) | Control Value (cucumber powdery mildew) | Growth Inhibition B.c (1.6) (Botrytis cinerea) | Growth Inhibition S.t (100) (Septoria tritici) | Relative Mobility (wheat powdery mildew [2]) | Growth Inhibition L.n (0.8) (Leptosphaeria nodorum)
CC(Cc1ccc(C(F)(F)F)cc1F)CN(C)Cc1ccc(Cl)nc1 (centres unmarked) [Compound I-8] | 100 | 100 | 4 (Hypha extension inhibition rate of from 70% to less than 90%) | 4 (Hypha extension inhibition rate of from 70% to less than 90%) | 5 | 
CC(Cc1ccc(F)c(OC(F)(F)F)c1)CN(C)Cc1ccc(Cl)nc1 (centres unmarked) [Compound I-16] | 100 | 100 | 4 (Hypha extension inhibition rate of from 70% to less than 90%) |  | 9 | 5 (Hypha extension inhibition rate of 90% or more)
CC(Cc1ccc2c(c1)C(F)(F)OC(F)(F)O2)CN(C)Cc1ccc(Cl)nc1 (centres unmarked) [Compound I-27] | 100 | 100 | 4 (Hypha extension inhibition rate of from 70% to less than 90%) |  | 3 | 
